Some test systems named below: HCT-15 colon; NCI-H23 lung; MCF7 breast; OVCAR-3 ovarian; SW-620 colon; TK-10 renal; HCC-2998 colon; SF-268 CNS; OVCAR-4 ovarian; SR leukemia.
What all share (assay): NCI-60 cell line screen, 48 h

“And” between values parts separate entries of the source, which are not always exact repeats. Identical values can stand only once.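 Cultured in 96-well plates, cells were exposed to test compound for 48 hours across five concentrations. GI50 marks 50% less growth. TGI denotes the concentration required for complete inhibition of growth.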

`NCC(Cc1ccccc1)P(=O)(O)O` (stereo not drawn): the TGI in the assay with HCT-15 colon, in the assay with NCI-H23 lung, in the assay on MCF7 breast, in the assay with OVCAR-3 ovarian, with SW-620 colon and in the assay with TK-10 renal was > 100 µM each time. Moreover, the TGI in the assay on HCC-2998 colon, with SF-268 CNS and in the assay on OVCAR-4 ovarian was > 100 µM throughout.

Regarding `CC1CCC2c3c([nH]c4ccccc34)C3C(=O)N(c4ccccc4)C(=O)C3C2C1` (stereo not drawn), the TGI in the assay on HCT-15 colon was > 250 µM; with NCI-H23 lung, > 250 µM; in the assay on OVCAR-3 ovarian, > 250 µM; with SW-620 colon it was > 250 µM; with TK-10 renal, 67.5 µM and 181 µM; with HCC-2998 colon it was > 250 µM. Moreover, the TGI in the assay on SR leukemia was > 250 µM; in the assay on SF-268 CNS it was 97.9 µM and > 250 µM; in the assay with OVCAR-4 ovarian, > 250 µM. Also, the GI50 was 30.3 µM in the assay with NCI-H23 lung; > 250 µM in the assay on OVCAR-3 ovarian; 45.5 µM in the assay with TK-10 renal; > 250 µM in the assay with SR leukemia; 165 µM in the assay on SF-268 CNS.

For `O=S(=O)(Cc1ccccc1)SCc1ccccc1`, the TGI in the assay with HCT-15 colon was 40.2 µM; in the assay on NCI-H23 lung it was 52.7 µM; in the assay with OVCAR-3 ovarian it was 58.5 µM; with SW-620 colon it was 15.5 µM; in the assay on TK-10 renal, 99.2 µM; in the assay on HCC-2998 colon, 55.2 µM. For the same compound, the TGI is > 66.4 µM in the assay on SR leukemia, > 100 µM in the assay on SF-268 CNS and 54 µM in the assay with OVCAR-4 ovarian.

With `CC(=O)c1c(O)c2c([nH]c1=O)CCCC2`, the TGI in the assay on HCT-15 colon was > 100 µM; in the assay with NCI-H23 lung, > 100 µM; in the assay on OVCAR-3 ovarian, > 100 µM; in the assay on SW-620 colon, > 100 µM; in the assay with TK-10 renal, > 100 µM; with HCC-2998 colon, 53.4 µM. Also, the TGI in the assay on SF-268 CNS and with OVCAR-4 ovarian was > 100 µM in each case.

On to `O=C(CN(/C=C/C(=O)C(F)(F)F)c1ccccc1)c1ccc(F)cc1`, for which the GI50 was 25.4 µM with HCT-15 colon; 29.5 µM in the assay with NCI-H23 lung; 23.2 µM in the assay on MCF7 breast; 25.8 µM in the assay on OVCAR-3 ovarian; 19.9 µM with SW-620 colon; 33 µM with TK-10 renal. The GI50 was 17.8 µM with HCC-2998 colon, 23.1 µM in the assay on SF-268 CNS and 42.5 µM in the assay with OVCAR-4 ovarian. Further, the TGI was > 100 µM in the assay on HCT-15 colon; > 100 µM in the assay on NCI-H23 lung; 59.3 µM with MCF7 breast; 68.7 µM in the assay with OVCAR-3 ovarian; 42.9 µM with SW-620 colon; > 100 µM in the assay on TK-10 renal. In addition, the TGI in the assay on HCC-2998 colon is 41.6 µM; in the assay on SF-268 CNS, 64.5 µM; with OVCAR-4 ovarian it was > 100 µM.

As for `C/C(CC(=O)Nc1cccc(Cl)c1C)=N\N=C(N)N`, the TGI in the assay with HCT-15 colon, with NCI-H23 lung, with OVCAR-3 ovarian, in the assay on TK-10 renal, with HCC-2998 colon and with SF-268 CNS was > 100 µM each time. Also, the TGI with OVCAR-4 ovarian was > 100 µM.

With `NNC(=O)N/N=C1\CNC(=O)C(=O)C1c1nc2ccccc2s1` (stereo not drawn), the TGI in the assay on HCT-15 colon, in the assay on NCI-H23 lung, with OVCAR-3 ovarian, with SW-620 colon, with TK-10 renal and with HCC-2998 colon was > 100 µM in each case. The TGI with SF-268 CNS and in the assay with OVCAR-4 ovarian was > 100 µM each time.

Turning to `Cc1ccc(O)cc1Nc1ccnc2cc(-c3ccccn3)ccc12`, the GI50 in the assay with HCT-15 colon is 2.44 µM; in the assay with NCI-H23 lung it was 3.59 µM; in the assay with MCF7 breast, 2.71 µM; in the assay with OVCAR-3 ovarian it was 2.14 µM; in the assay with SW-620 colon it was 4.02 µM; with TK-10 renal it was 1.36 µM. Moreover, the GI50 with HCC-2998 colon is 3.89 µM; in the assay on SF-268 CNS it was 1.71 µM; in the assay with OVCAR-4 ovarian, 1.82 µM. Moreover, the TGI was found to be 6.79 µM in the assay on HCT-15 colon; 10.9 µM in the assay with NCI-H23 lung; 6.07 µM in the assay on MCF7 breast; 6.36 µM in the assay on OVCAR-3 ovarian; 7.65 µM in the assay with SW-620 colon; 4.23 µM with TK-10 renal. The figures for the TGI with HCC-2998 colon, in the assay with SF-268 CNS and in the assay on OVCAR-4 ovarian were 7.51 µM, 5.88 µM and 11.7 µM, respectively.

For `CC(C)=CC(=O)CC(=O)C(=O)NCCNC(=O)C(=O)CC(=O)C=C(C)C`, the TGI in the assay on HCT-15 colon, in the assay on NCI-H23 lung, in the assay with OVCAR-3 ovarian, in the assay with SW-620 colon, with TK-10 renal and in the assay on HCC-2998 colon was > 50 µM in each case. Further, the TGI with SF-268 CNS and with OVCAR-4 ovarian was > 50 µM in each case.

Consider `c1ccc2c(c1)[O][Sn][O]2`, for which the GI50 in the assay with HCT-15 colon was 20.6 µg/mL; in the assay with NCI-H23 lung, 21.3 µg/mL; in the assay with OVCAR-3 ovarian, 10.9 µg/mL; with SW-620 colon, 69 µg/mL; in the assay with TK-10 renal, 101 µg/mL; in the assay on HCC-2998 colon, 81.5 µg/mL. Moreover, the GI50 in the assay with SF-268 CNS is 25.1 µg/mL; with OVCAR-4 ovarian it was 102 µg/mL. The TGI in the assay with HCT-15 colon is > 150 µg/mL; in the assay with NCI-H23 lung, 113 µg/mL; in the assay on OVCAR-3 ovarian it was > 150 µg/mL; in the assay on SW-620 colon it was > 150 µg/mL; in the assay with TK-10 renal it was > 150 µg/mL; in the assay with HCC-2998 colon it was > 150 µg/mL. The TGI in the assay with SF-268 CNS and with OVCAR-4 ovarian was > 150 µg/mL in each case.

Take `COc1cc2c3c(n(CCCN4CCSCC4)c(=O)c2cc1OC)-c1cc2c(cc1C3=O)OCO2`: the GI50 in the assay on HCT-15 colon is > 100 µM; in the assay with NCI-H23 lung it was > 100 µM; in the assay on MCF7 breast, 61.4 µM; in the assay with OVCAR-3 ovarian, 35 µM; in the assay on SW-620 colon, 96.8 µM; with TK-10 renal, 27.2 µM. Further, the GI50 was 35.1 µM in the assay on HCC-2998 colon, 28.2 µM with SF-268 CNS and > 100 µM in the assay with OVCAR-4 ovarian. Further, the TGI in the assay with HCT-15 colon is > 100 µM; in the assay with NCI-H23 lung it was > 100 µM; in the assay with MCF7 breast, > 100 µM; with OVCAR-3 ovarian it was 97.1 µM; in the assay on SW-620 colon, > 100 µM; with TK-10 renal it was 82.9 µM. Further, the TGI in the assay on HCC-2998 colon, in the assay with SF-268 CNS and in the assay on OVCAR-4 ovarian was > 100 µM each time.

For the origin of these results see PubChem BioAssay (NCI).
